This data set can be described thus: Ibuprofen concentration in 0.1 N HCl by HPLC UV. Type of data set: physicochemical. Conditions: 1 g solid dispersion (=200 mg ibuprofen) or raw drug in 900 mL 0.1 N HCl, stirred at 100 rpm for 0.5 h. On the procedure:
(§1) Samples were taken and ibuprofen concentration was measured by HPLC UV.
as §1

From patent publication US6391338B1, “System for rendering substantially non-dissoluble bio-affecting agents bio-available” (Biovail Technologies Ltd., priority 1995, dated 2002) come the findings set out here.

Molecule `CC(C)Cc1ccc(C(C)C(=O)O)cc1` (stereo not shown) [ibuprofen] had an ibuprofen concentration of 0.030 µg/mL.
